Earlier results as cited in patent US5026825A, “Intranasal calcitonin formulations” (Rhone-Poulenc Rorer Pharmaceuticals Inc., priority 1988, dated 1991).
Ends that are not written are not given here.

Conditions: calcitonin used in Example 6; USP 4,391,747

Substance | potency
Des asparagine-3-Calcitonins | 4,300 MRC units/mg

Same assay, conditions: calcitonins used in Examples 7-10; from cited US patents

Substance | potency
1A-endo-glycine-calcitonin | 4,650 IU/mg
D-Arginine^24 Calcitonins | 5,000 IU/mg
Glycine^8 -D-Arginine^24 Calcitonins | 3,500 IU/mg
[16-Alanine] Calcitonins [16-alanine calcitonin] | 6,200 IU/mg

Same assay, conditions: in vivo

Substance | potency (level of hypocalcemic activity)
beef calcitonin: natural calcitonin of beef (bovine) (CSNLSTCVLSAYWKDLNNYHRFSGMGFGPETP; ends and bridges not checked; cysteine pairing not given here; UniProt P01260 1-32, looked up) | 100 to 200 MRC U/mg peptide
chicken calcitonin (CASLSTCVLGKLSQELHKLQTYPRTDVGAGTP; ends and bridges not checked; cysteine pairing not given here; UniProt P07660 82-113, looked up) [natural calcitonin of chicken] | 4,000 to 6,000 MCR (Medical Research Council) U/mg peptide
eel calcitonin | 2,000 to 4,000 MRC U/mg peptide
hog calcitonin: natural calcitonin of hog (porcine) (CSNLSTCVLSAYWRNLNNFHRFSGMGFGPETP; ends and bridges not checked; cysteine pairing not given here; UniProt P01259 1-32, looked up) | 100 to 200 MRC U/mg peptide
man calcitonin: natural calcitonin of man (human) | 100 to 200 MRC U/mg peptide
rat calcitonin: natural calcitonin of rat (CGNLSTCMLGTYTQDLNKFHTFPQTSIGVGAP; ends and bridges not checked; cysteine pairing not given here; UniProt P01257 85-116, looked up) | 400 MRC U/mg
